PubChem BioAssay (NCI)
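Results reflect a 48-hour exposure of cells in 96-well plates to compound at five concentrations. Abbreviation: GI50, concentration required for 50% inhibition of growth. TGI is the concentration that stops growth completely.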

How the values were obtained:
Assay in all cases: DTP human tumour cell line panel, 48 h
OVCAR-3 ovarian = system: OVCAR-3 ovarian
MDA-MB-231 breast = system: MDA-MB-231 breast
COLO 205 colon = system: COLO 205 colon
TK-10 renal = system: TK-10 renal
HCT-15 colon = system: HCT-15 colon
CCRF-CEM leukemia = system: CCRF-CEM leukemia
DU-145 prostate = system: DU-145 prostate
NCI-H460 lung = system: NCI-H460 lung
KM12 colon = system: KM12 colon
OVCAR-5 ovarian = system: OVCAR-5 ovarian

SMILES	TGI (OVCAR-3 ovarian)	TGI (MDA-MB-231 breast)	TGI (COLO 205 colon)	TGI (TK-10 renal)	TGI (HCT-15 colon)	TGI (CCRF-CEM leukemia)	TGI (DU-145 prostate)	TGI (NCI-H460 lung)	TGI (KM12 colon)	TGI (OVCAR-5 ovarian)	GI50 (OVCAR-3 ovarian)	GI50 (MDA-MB-231 breast)	GI50 (COLO 205 colon)	GI50 (TK-10 renal)	GI50 (HCT-15 colon)	GI50 (CCRF-CEM leukemia)	GI50 (DU-145 prostate)	GI50 (NCI-H460 lung)	GI50 (KM12 colon)	GI50 (OVCAR-5 ovarian)
CCOC(=S)SC/C(=N\OC(C)(C)OC)c1ccccc1	> 100 µM	> 100 µM	> 100 µM	> 100 µM	> 100 µM	44.5 µM	> 100 µM	> 100 µM	> 100 µM	> 100 µM	–	–	–	–	–	–	–	–	–	–
O=C(Nc1ccc(Cl)cc1)c1cc(S(=O)(=O)NC2=NC(c3ccccc3)c3cc(Cl)ccc3N2)c(SSc2cc(Cl)c(C(=O)Nc3ccc(Cl)cc3)cc2S(=O)(=O)NC2=NC(c3ccccc3)c3cc(Cl)ccc3N2)cc1Cl (stereo not given)	> 100 µM	> 100 µM	> 100 µM	> 100 µM	> 100 µM	> 40.1 µM	> 100 µM	> 100 µM	> 100 µM	> 100 µM	–	–	–	–	–	–	–	–	–	–
CCOc1ccc(-n2c(=O)n3c(Nc4ccc(Cl)cc4)nc4c(c(=O)n(C)c(=O)n4C)n3c2=O)cc1	52.5 µM	35.1 µM	46.4 µM	66 µM	42 µM	52.9 µM	> 100 µM	36.1 µM	30.9 µM	> 100 µM	–	–	–	–	–	–	–	–	–	–
COc1cc(C(=O)OC2CC(C)=CC[C@@]3(C)CC[C@](O)(C(C)C)C23)ccc1O (stereo not given in full)	35.5 µM	30.5 µM	39 µM	30.1 µM	35.3 µM	69 µM	32.4 µM	32.5 µM	29.9 µM	32.6 µM	–	–	–	–	–	–	–	–	–	–
COc1ccc(CCN2CCOCC2)cc1	> 100 µM	> 100 µM	> 100 µM	> 100 µM	> 100 µM	> 100 µM	> 100 µM	> 100 µM	> 100 µM	> 100 µM	–	–	–	–	–	–	–	–	–	–
CCC(=O)n1c(=O)n(-c2ccc([N+](=O)[O-])cc2)c(=O)n1C(=O)CC	> 100 µM	> 100 µM	> 100 µM	> 100 µM	> 100 µM	> 100 µM	> 100 µM	> 100 µM	> 100 µM	> 100 µM	–	–	–	–	–	–	–	–	–	–
O=C1O[C@H](COC(=O)c2ccccc2)[C@@H](OC(=O)c2ccccc2)C=C1OC(=O)c1ccccc1	35.9 µM	36.2 µM	38.3 µM	75.7 µM	39.6 µM	41.9 µM	> 100 µM	36.6 µM	> 100 µM	40.9 µM	–	–	–	–	–	–	–	–	–	–
Cc1noc(C)c1N=Nc1ccc2nonc2c1N	> 100 µM	> 100 µM	> 100 µM	> 100 µM	> 100 µM	> 100 µM	> 100 µM	> 100 µM	> 100 µM	> 100 µM	–	–	–	–	–	–	–	–	–	–
CCOC(=O)c1[nH]n(-c2ccccc2)c(=O)c1C=NC(=S)C(N)=S	> 100 µM	> 100 µM	68.5 µM	> 100 µM	> 100 µM	> 100 µM	> 100 µM	> 100 µM	> 100 µM	> 100 µM	–	–	–	–	–	–	–	–	–	–
CCCCCCCCC[C@@H]1C[C@@H]2CCC3C(C(=O)OCCCCNC(=O)OCc4ccccc4)=C(C)NC(=N1)N32 (stereo not given in full)	14.9 µM	6.09 µM	2.97 µM	17.7 µM	8.06 µM	8.93 µM	21 µM	13.3 µM	13.7 µM	21.4 µM	–	–	–	–	–	–	–	–	–	–
CCNC(=O)CCCCC(=O)c1c(C)[nH]c(/C=C2\N=C(c3ccc[nH]3)C=C2OC)c1C	3.67 µM	4.32 µM	3.65 µM	5.37 µM	4.4 µM	> 100 µM	11 µM	4.19 µM	4.79 µM	20.6 µM	1.85 µM	2.04 µM	1.97 µM	2.37 µM	1.83 µM	2.59 µM	3.01 µM	1.95 µM	2.17 µM	6.01 µM
Cc1cc(O)c(/C=N/C(=O)NN)c(=O)o1	> 100 µM	> 100 µM	> 100 µM	> 100 µM	> 100 µM	> 100 µM	> 100 µM	> 100 µM	> 100 µM	> 100 µM	–	–	–	–	–	–	–	–	–	–
CC1(C)CC(=O)C2=C(C1)N(c1ccccc1)C1(O)C=CC(=O)C3=C(O)c4ccccc4C(=O)C321 (stereo not given)	> 100 µM	> 100 µM	> 100 µM	52.2 µM	> 100 µM	> 100 µM	> 100 µM	83.9 µM	86.3 µM	> 100 µM	–	–	–	–	–	–	–	–	–	–
CCOC(=O)c1ccc2c(=O)n3c(C(=O)OCC)ccc3c(=O)n12	> 100 µM	> 100 µM	> 100 µM	> 100 µM	> 100 µM	> 100 µM	> 100 µM	> 100 µM	> 100 µM	> 100 µM	–	–	–	–	–	–	–	–	–	–
COC(=O)C1(Cc2ccc3c(c2)CCC3)Cc2cc3c(cc2C1=O)CCC3 (stereo not given)	> 46.4 µM	> 46.4 µM	29.2 µM	> 46.4 µM	> 46.4 µM	> 46.4 µM	> 46.4 µM	> 46.4 µM	> 46.4 µM	> 46.4 µM	–	–	–	–	–	–	–	–	–	–
O=C(O)[C@H]1NC[C@@H]2ON=C(Br)[C@@H]21	> 100 µM	> 100 µM	> 100 µM	> 100 µM	> 100 µM	> 100 µM	> 100 µM	> 100 µM	> 100 µM	> 100 µM	–	–	–	–	–	–	–	–	–	–
COc1ccc(-c2cc(-c3ccc(Nc4ccnc5cc(C(F)(F)F)ccc45)cc3)[nH]c(=O)c2C#N)cc1	> 100 µM	> 82.9 µM	> 63.7 µM	> 68.2 µM	> 100 µM	> 100 µM	> 100 µM	> 100 µM	> 100 µM	> 100 µM	–	–	–	–	–	–	–	–	–	–
CC1(C)C(C(=O)OC(C#N)c2cccc(OCC(=O)OCc3ccccc3)c2)C1(C)C (stereo not given)	> 100 µM	> 100 µM	> 100 µM	> 100 µM	> 100 µM	76.5 µM	> 100 µM	> 100 µM	> 100 µM	> 100 µM	–	–	–	–	–	–	–	–	–	–
CC(=O)O[C@@H]1CC2[C@@H](CCC3Cc4nc5c(nc4C[C@@]32C)CC2CC[C@@H]3C(CC[C@@]4(C)C3CC[C@@H]4C(C)CCCC(C)C)[C@@]2(C)C5)C2C[C@@H]3OC4(CCC(C)CO4)C(C)[C@@H]3[C@]21C (stereo not given in full)	> 100 µM	> 100 µM	> 100 µM	> 100 µM	> 100 µM	> 100 µM	> 100 µM	> 100 µM	> 100 µM	> 100 µM	–	–	–	–	–	–	–	–	–	–
COC(=O)C1=C2Nc3ccccc3C23CCN2C(O)C4(CC5CC67CCOC6CCN6CCC8(c9cccc(OC)c9N(C4)C58O)C67)C4OCCC4(C1)C23 (stereo not given)	> 100 µM	61.3 µM	> 100 µM	> 100 µM	> 100 µM	> 100 µM	> 100 µM	> 100 µM	> 100 µM	> 100 µM	–	–	–	–	–	–	–	–	–	–
Cc1cc2nc(NS(=O)(=O)c3cc(C)c(Cl)cc3S)[nH]c2cc1C	> 100 µM	> 100 µM	> 100 µM	> 100 µM	> 100 µM	81.8 µM	> 100 µM	43.1 µM	> 100 µM	> 100 µM	–	–	–	–	–	–	–	–	–	–
O=C(OCc1c(-c2ccccc2)nn(-c2ccccc2)c1COC(=O)Oc1ccccc1)Oc1ccccc1	> 100 µM	> 100 µM	> 100 µM	> 100 µM	> 100 µM	> 100 µM	> 100 µM	> 100 µM	> 100 µM	> 100 µM	–	–	–	–	–	–	–	–	–	–
Nc1nc(SCc2ccccc2[N+](=O)[O-])c2[nH]cnc2n1	> 100 µM	> 100 µM	> 71.7 µM	> 62.7 µM	> 100 µM	> 94.5 µM	> 100 µM	> 76.1 µM	> 100 µM	> 100 µM	–	–	–	–	–	–	–	–	–	–
COc1cc(OC)c(NC2=NCCO2)cc1Cl	> 100 µM	64.5 µM	38.2 µM	> 100 µM	> 100 µM	> 100 µM	> 100 µM	45.9 µM	39.1 µM	> 100 µM	–	–	–	–	–	–	–	–	–	–
O=S(=O)(Nc1nc(-c2cc(O)c(O)c(O)c2)cs1)c1ccc(Cl)cc1Cl	37.6 µM	44.9 µM	50.2 µM	36.2 µM	33 µM	41.5 µM	53.8 µM	38.6 µM	31.1 µM	33.4 µM	–	–	–	–	–	–	–	–	–	–
Cn1c2cc(Cl)ccc2c2ccc3c(c21)C(=O)C=CC3=O	17.1 µM	> 68.6 µM	20.7 µM	56.6 µM	> 57.5 µM	31.4 µM	> 100 µM	> 100 µM	> 100 µM	> 100 µM	–	–	–	–	–	–	–	–	–	–
COC(=O)C(Cc1ccccc1)NC(=O)C(CCCN=C(N)N)NC(=O)OCc1ccccc1 (stereo not given)	> 100 µM	> 100 µM	> 100 µM	> 100 µM	> 100 µM	> 100 µM	> 100 µM	> 100 µM	> 100 µM	> 100 µM	–	–	–	–	–	–	–	–	–	–
CC(C(O)c1ccccc1)[N+](=O)[O-] (stereo not given)	17.3 µM	59.2 µM	80 µM	72 µM	43.4 µM	> 100 µM	35.5 µM	> 100 µM	50.6 µM	65.6 µM	–	–	–	–	–	–	–	–	–	–
COc1cc(C2c3cc4c(cc3OC(N3CCOCC3)C2C)OCO4)cc(OC)c1OC (stereo not given)	> 23 µM	37.3 µM	> 71.3 µM	63.9 µM	> 40.3 µM	> 100 µM	> 49.6 µM	10.2 µM	14 µM	> 65.7 µM	–	–	–	–	–	–	–	–	–	–
N#CCCCCC12C3C(=O)N(c4ccccc4)C(=O)C3ON1O[C@@H]1C(=O)N(c3ccccc3)C(=O)[C@@H]12 (stereo not given in full)	> 100 µM	> 100 µM	> 100 µM	> 100 µM	> 100 µM	> 100 µM	> 100 µM	> 100 µM	> 100 µM	> 100 µM	–	–	–	–	–	–	–	–	–	–
